In BigSolDB 2.1:

[NH3+]O.[NH3+]O.[O-]n1nnnc1-c1nnnn1[O-]
solubility (mole fraction)
Conditions	in DMF	in DMSO	in ethanol	in ethyl acetate	in formic acid	in toluene	in water
293.15 K	6.38e-05	0.00122	3.87e-06	1.93e-06	0.000213	1.85e-05	2.42e-05
298.15 K	7.18e-05	0.00131	4.82e-06	2.16e-06	0.000231	2.2e-05	2.83e-05
303.15 K	9.56e-05	0.00149	5.92e-06	2.37e-06	0.00025	2.44e-05	3.29e-05
308.15 K	0.000142	0.00159	7.19e-06	2.72e-06	0.00028	2.6e-05	3.59e-05
313.15 K	0.000183	0.00179	8.16e-06	3.16e-06	0.000302	2.89e-05	4.17e-05
318.15 K	0.000225	0.00191	9.64e-06	3.56e-06	0.000347	3.24e-05	4.84e-05
323.15 K	0.000269	0.00211	1.21e-05	3.92e-06	0.000392	3.69e-05	5.5e-05
